Values quoted from earlier work, collected in patent US20030148386A1, “Method for drug design using comparative molecular field analysis (CoMFA) extended for multi-mode/multi-species ligand binding and disposition” (priority 2001, published 2003).

biological target: T1, aryl hydrocarbon (Ah) receptor (Rattus norvegicus, UniProt P41738); conditions: not given
T1 sequence (P41738 10-853): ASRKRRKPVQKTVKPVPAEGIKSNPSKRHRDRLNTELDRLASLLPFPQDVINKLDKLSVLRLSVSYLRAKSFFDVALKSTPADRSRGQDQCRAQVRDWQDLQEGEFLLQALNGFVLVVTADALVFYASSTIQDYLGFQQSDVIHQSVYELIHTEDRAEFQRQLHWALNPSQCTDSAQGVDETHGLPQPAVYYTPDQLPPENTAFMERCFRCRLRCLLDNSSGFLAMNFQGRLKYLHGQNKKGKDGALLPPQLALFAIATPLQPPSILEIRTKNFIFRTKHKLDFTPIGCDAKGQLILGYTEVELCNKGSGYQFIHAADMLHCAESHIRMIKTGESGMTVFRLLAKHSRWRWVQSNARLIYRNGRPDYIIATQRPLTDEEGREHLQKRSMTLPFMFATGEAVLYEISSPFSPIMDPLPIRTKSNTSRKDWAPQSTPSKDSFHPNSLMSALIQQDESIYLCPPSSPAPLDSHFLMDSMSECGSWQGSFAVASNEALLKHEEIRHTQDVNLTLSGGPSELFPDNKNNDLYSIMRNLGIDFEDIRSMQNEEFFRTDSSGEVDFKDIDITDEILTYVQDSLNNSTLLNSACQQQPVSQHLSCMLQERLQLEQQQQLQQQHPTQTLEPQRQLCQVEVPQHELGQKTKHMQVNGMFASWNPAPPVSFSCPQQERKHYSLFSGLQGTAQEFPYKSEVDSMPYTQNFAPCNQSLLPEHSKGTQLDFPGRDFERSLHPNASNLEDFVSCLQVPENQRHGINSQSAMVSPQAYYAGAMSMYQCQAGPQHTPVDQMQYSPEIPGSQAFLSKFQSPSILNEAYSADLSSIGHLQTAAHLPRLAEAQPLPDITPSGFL

In the case of `Clc1cc2oc3c(Cl)c(Cl)c(Cl)cc3c2cc1Cl` [Compound 29], the “binding affinity to the Ah receptor (in words)” value is given as “highest binding affinity”.
In the case of `Clc1cc2c(cc1Cl)Oc1cc(Cl)c(Cl)cc1O2` [TCDD, 2,3,7,8-tetrachloro dibenzodioxin, reference compound], the “binding affinity to the Ah receptor (in words)” value is given as “highest binding affinity”.

same assay, conditions: pEC50=-log(EC50)=logKi, EC50 in mol/L; displacement of radiolabeled TCDD

Point of comparison: `Clc1ccc2c(c1)oc1ccccc12` [Compound 03], pEC50 observed 4.377 ± 0.058. Against it:
- Clc1cc(Cl)c2c(c1)oc1c(Cl)cccc12 [Compound 08] — higher, 5.357
- Clc1cc(Cl)c2c(c1)oc1ccc(Cl)cc12 [Compound 09] — lower, 4.071
- Clc1cc2oc3c(Cl)cccc3c2c(Cl)c1Cl [Compound 13] — higher, 6.456
- Clc1ccc2c(c1)oc1cc(Cl)c(Cl)c(Cl)c12 [Compound 14] — higher, 6.959
- Clc1cc2c(oc3c(Cl)cccc32)c(Cl)c1Cl [Compound 16] — higher, 6.456
- Clc1ccc2c(c1)oc1c(Cl)c(Cl)c(Cl)cc12 [Compound 17] — higher, 7.602
- Clc1ccc2oc3c(Cl)c(Cl)c(Cl)cc3c2c1 [Compound 18] — higher, 6.699
- Clc1cc(Cl)c2oc3cc(Cl)c(Cl)cc3c2c1 [Compound 19] — higher, 6.658
- Clc1cc2oc3cc(Cl)c(Cl)cc3c2cc1Cl [Compound 20] — higher, 7.387 ± 0.059
- Clc1ccc2oc3c(Cl)c(Cl)c(Cl)c(Cl)c3c2c1 [Compound 21] — higher, 6.921
- Clc1cc2oc3cc(Cl)c(Cl)c(Cl)c3c2cc1Cl [Compound 22] — higher, 7.128 ± 0.105
- Clc1cc(Cl)c2c(c1)oc1cc(Cl)c(Cl)c(Cl)c12 [Compound 23] — higher, 6.398
- Clc1ccc2c(oc3c(Cl)cc(Cl)c(Cl)c32)c1Cl [Compound 24] — higher, 7.169
- Clc1cc(Cl)c2oc3c(Cl)cc(Cl)c(Cl)c3c2c1 [Compound 25] — higher, 5.509
- Clc1cc2oc3c(Cl)cc(Cl)c(Cl)c3c2cc1Cl [Compound 26] — higher, 5.886
- Clc1cc(Cl)c2c(c1)oc1c(Cl)cc(Cl)c(Cl)c12 [Compound 27] — higher, 4.699
- Clc1cc2oc3c(Cl)c(Cl)cc(Cl)c3c2cc1Cl [Compound 28] — higher, 6.699
- Clc1cc2oc3c(Cl)c(Cl)c(Cl)cc3c2cc1Cl [Compound 29] — higher, 7.824 ± 0.028
- Clc1cc(Cl)c2c(c1)oc1c(Cl)c(Cl)c(Cl)cc12 [Compound 30] — higher, 6.699
- Clc1cc2oc3c(Cl)c(Cl)c(Cl)c(Cl)c3c2cc1Cl [Compound 31] — higher, 6.638
- Clc1cc2c(oc3cc(Cl)c(Cl)c(Cl)c32)c(Cl)c1Cl [Compound 32] — higher, 6.569 ± 0.137
- Clc1cc2c(oc3c(Cl)cc(Cl)c(Cl)c32)c(Cl)c1Cl [Compound 33] — higher, 5.081
- Clc1cc2c(oc3c(Cl)c(Cl)c(Cl)cc32)c(Cl)c1Cl [Compound 34] — higher, 7.328 ± 0.036
